# Literature values, collected in patent US20060024422A1, “Salt substitute compositions having N-neohexyl-a-aspartyl-l- phenylalanine methyl ester for modifying flavor and methods of manufacturing the same” (Cumberland Packing Corp., priority 2004, published 2006).
# Details: on a weight basis
structure (smiles),measurement,value
"COC(=O)[C@H](Cc1ccccc1)NC(=O)[C@H](CC(=O)O)NCCC(C)(C)C [neotame, N-[N-(3,3-dimethylbutyl)-L-α-aspartyl]-L-phenylalanine 1-methyl ester]",Sweetness relative to sucrose,"approximately 8,000 times"
